In patent US20140366440A1, “METHOD FOR PRODUCING CLONE SEEDLINGS” (OKAYAMA PREFECTURE, priority 2009, published 2014):

Key:
Format in all cases: in vivo, Eucalyptus globulus
[1] = system: E. globulus wild-type (tissue culture); assay: Rooting of tissue-culture shoots planted to supporter infiltrated with rooting medium containing oxidized glutathione; details: for Rooting rate (%): 27 test pieces; for Number of rooted shoots: of 27 test pieces
Description: A foliage (shoot) grown to have a length of 2 cm to 5 cm was cut from a multiple shoot induced from a wild-type Eucalyptus globulus (hereinafter, abbreviated simply as an “E. globulus”). Inducing the multiple shoot followed a method described in Japanese Patent Application Publication, Tokukaihei, No. 8-228621 A. Specifically, a tissue (terminal bud and axillary bud) was collected from E. globulus (wild type), and the tissue thus collected was subjected to surface disinfection by immersing the tissue for twenty minutes in an sodium hypochlorite aqueous solution containing an amount of available chlorine of 1%. Then, the tissue which had been subjected to the surface disinfection was washed by sterilized water and was planted to a solid medium (MS medium containing sucrose of […], BA of 0.2 mg/L, and gellan gum of […]), and its bud was opened. Within three and four weeks after the culturing of the foliage was started, the culturing of the foliage was subcultured in a medium having a composition identical with that described above. […] Note that the foliages from the multiple shoot was grown in a medium having the composition identical with that used for forming the multiple shoot under the condition identical with that used for forming the multiple shoot.
(§1) A base of the shoot thus obtained was planted to a foaming phenolic resin porous supporter (Manufactured by Smithers-Oasis Company; Product name: Oasis). […] The base of the shoot was cultured for two months in carbon dioxide gas of 1000 ppm at a temperature of 25° C. under irradiation of red light having photosynthesis photon flux density of 51.3 μmol/m^2/S and having a wavelength component of 650 nm to 670 nm to a wavelength component of 450 nm to 470 nm at a ratio of 8.2:1.8. The culturing was carried out with a culture container, which was a cube container (maximum size of about 10 cm to 11.5 cm in length×10 cm to 11.5 cm in width×10.0 cm in height) having a shape whose bulge was slightly protruded. […] Carbon dioxide gas outside the culture container was allowed to enter the culture container through this carbon dioxide gas permeable membrane covering the opening. Accordingly, carbon dioxide gas concentration inside the culture container was about 1000 ppm due to the permeation of the carbon dioxide gas through the film covering the opening of the culture container. The culture container was irradiated with red light by use of a light irradiation device (Product name: CCFL unit, maker's name: Nippon Medical& Chemical Instruments CO., LTD.). Further, humidity in the culture container is adjusted by sealing the culture container with Parafilm.
(§2) Nine shoots were planted per culture container. A rooting rate was calculated from the number of test pieces of the shoot and the number of shoots (the number of rooted shoots) which had been rooted after the foliage was cultured for two months.

E. globulus (Clone E) = assay: Rooting of shoots with wounded base in rooting medium containing oxidized glutathione; details: Example 18: 50 mg/L in medium
Protocol: as §1, §2

E. globulus (Clone D) = assay: as above; details: Example 17: 50 mg/L in medium
Protocol: as §1, §2

E. globulus (Clone C) = assay: as above; details: Example 16: 50 mg/L in medium
Protocol: as §1, §2

[2] = system: E. globulus (wild-type F); assay: as above; details: Example 19: 50 mg/L in medium
Protocol: as §1, §2

E. globulus (Clone H) = assay: Rooting of shoots with wounded base, line whose rooting is extremely difficult; details: Example 21: 50 mg/L in medium
Protocol: as §1, §2

E. globulus (Clone G) = assay: as above; details: Example 20: 50 mg/L in medium
Protocol: as §1, §2

E. globulus (Clone I) = assay: as above; details: Example 22: 50 mg/L in medium
Protocol: as §1, §2

[3] = Example 2: 50 mg/L in medium, two months
[4] = Example 3: 75 mg/L in medium, two months

## oxidized glutathione
[1]; Example 1: 25 mg/L in medium, adding glutathione to rooting medium (with STS, ascorbic acid, IBA), cultured two months
  Rooting rate (%): 74.1%
[1]; Example 1: 25 mg/L in medium, two months
  Number of rooted shoots: 20
[1]; [3]
  Rooting rate (%): 85.2%
  Number of rooted shoots: 23
[1]; [4]
  Rooting rate (%): 51.9%
  Number of rooted shoots: 14
E. globulus (Clone E); 27 test pieces
  Rooting rate (%): 88.9%
E. globulus (Clone E); of 27 test pieces
  Number of rooted shoots: 24
E. globulus (Clone D); 18 test pieces
  Rooting rate (%): 88.9%
E. globulus (Clone D); of 18 test pieces
  Number of rooted shoots: 16
E. globulus (Clone C); 27 test pieces
  Rooting rate (%): 96.3%
E. globulus (Clone C); of 27 test pieces
  Number of rooted shoots: 26
[2]; 18 test pieces
  Rooting rate (%): 100.0%
[2]; of 18 test pieces
  Number of rooted shoots: 18
E. globulus (Clone H); 5 test pieces
  Rooting rate (%): 40.0%
E. globulus (Clone H); of 5 test pieces
  Number of rooted shoots: 2
E. globulus (Clone G); 18 test pieces
  Rooting rate (%): 33.3%
E. globulus (Clone G); of 18 test pieces
  Number of rooted shoots: 6
E. globulus (Clone I); 5 test pieces
  Rooting rate (%): 20.0%
E. globulus (Clone I); of 5 test pieces
  Number of rooted shoots: 1
